Experimental data published in ChEMBL document CHEMBL2311510, “A new single-photon emission computed tomography (SPECT) imaging agent for serotonin transporters: [(125)I]Flip-IDAM, (2-((2-((dimethylamino)methyl)-4-iodophenyl)thio)phenyl)methanol” (Bioorg Med Chem Lett, 2013).

Columns and labels:
Kidney [1] = test: Biodistribution in Sprague-Dawley rat kidney assessed as compound level per organ at 11 uCi, iv measured 2 mins post compound dose; assay type: ADME, organism-based; details: in vivo
Muscle tissue [2] = test: Biodistribution in Sprague-Dawley rat muscle at 11 uCi, iv measured 60 mins post compound dose; assay type: ADME, organism-based; details: in vivo, 1 h
Striatum [3] = test: Biodistribution in Sprague-Dawley rat striatum at 11 uCi, iv measured 120 mins post compound dose; assay type: ADME, organism-based; details: in vivo, 2 h
Brain [4] = test: Biodistribution in Sprague-Dawley rat rest of brain at 11 uCi, iv measured 2 mins post compound dose; assay type: ADME, organism-based; details: in vivo
Kidney [5] = test: Biodistribution in Sprague-Dawley rat kidney at 11 uCi, iv measured 2 mins post compound dose; assay type: ADME, organism-based; details: in vivo
Lung [6] = test: Biodistribution in Sprague-Dawley rat lung assessed as compound level per organ at 11 uCi, iv measured 60 mins post compound dose; assay type: ADME, organism-based; details: in vivo, 1 h
Brain [7] = test: Biodistribution in Sprague-Dawley rat rest of brain at 11 uCi, iv measured 120 mins post compound dose; assay type: ADME, organism-based; details: in vivo, 2 h
Pancreas [8] = test: Biodistribution in Sprague-Dawley rat pancreas assessed as compound level per organ at 11 uCi, iv measured 30 mins post compound dose; assay type: ADME, organism-based; details: in vivo, 0.5 h
Zone of skin [9] = test: Biodistribution in Sprague-Dawley rat skin assessed as compound level per organ at 11 uCi, iv measured 2 mins post compound dose; assay type: ADME, organism-based; details: in vivo
Striatum [10] = test: Biodistribution in Sprague-Dawley rat striatum at 11 uCi, iv measured 60 mins post compound dose; assay type: ADME, organism-based; details: in vivo, 1 h
Blood [11] = test: Biodistribution in Sprague-Dawley rat blood assessed as compound level per organ at 11 uCi, iv measured 120 mins post compound dose; assay type: ADME, organism-based; details: in vivo, 2 h
Liver = test: Biodistribution in Sprague-Dawley rat liver assessed as compound level per organ at 11 uCi, iv measured 2 mins post compound dose; assay type: ADME, organism-based; details: in vivo
Nucleic Acid [12] = test: Ratio of drug level in cortex to cerebellum in Sprague-Dawley rat at 11 uCi, iv measured 60 mins post compound dose; assay type: ADME, organism-based; details: in vivo, 1 h
Zone of skin [13] = test: Biodistribution in Sprague-Dawley rat skin assessed as compound level per organ at 11 uCi, iv measured 120 mins post compound dose; assay type: ADME, organism-based; details: in vivo, 2 h
Nucleic Acid [14] = test: Ratio of drug level in cortex to cerebellum in Sprague-Dawley rat at 11 uCi, iv measured 120 mins post compound dose; assay type: ADME, organism-based; details: in vivo, 2 h
Heart [15] = test: Biodistribution in Sprague-Dawley rat heart at 11 uCi, iv measured 120 mins post compound dose; assay type: ADME, organism-based; details: in vivo, 2 h
Nucleic Acid [16] = test: Ratio of drug level in rest of brain region to cerebellum in Sprague-Dawley rat at 11 uCi, iv measured 30 mins post compound dose; assay type: ADME, organism-based; details: in vivo, 0.5 h
Brain [17] = test: Biodistribution in Sprague-Dawley rat brain assessed as compound level per organ at 11 uCi, iv measured 30 mins post compound dose; assay type: ADME, organism-based; details: in vivo, 0.5 h
Spleen [18] = test: Biodistribution in Sprague-Dawley rat spleen at 11 uCi, iv measured 60 mins post compound dose; assay type: ADME, organism-based; details: in vivo, 1 h
Lung [19] = test: Biodistribution in Sprague-Dawley rat lung assessed as compound level per organ at 11 uCi, iv measured 120 mins post compound dose; assay type: ADME, organism-based; details: in vivo, 2 h
Nucleic Acid [20] = test: Ratio of drug level in hippocampus to cerebellum in Sprague-Dawley rat at 11 uCi, iv measured 60 mins post compound dose; assay type: ADME, organism-based; details: in vivo, 1 h
Lung [21] = test: Biodistribution in Sprague-Dawley rat lung assessed as compound level per organ at 11 uCi, iv measured 2 mins post compound dose; assay type: ADME, organism-based; details: in vivo
Cerebellum [22] = test: Biodistribution in Sprague-Dawley rat cerebellum at 11 uCi, iv measured 2 mins post compound dose; assay type: ADME, organism-based; details: in vivo
Brain [23] = test: Biodistribution in Sprague-Dawley rat brain assessed as compound level per organ at 11 uCi, iv measured 60 mins post compound dose; assay type: ADME, organism-based; details: in vivo, 1 h
Muscle tissue [24] = test: Biodistribution in Sprague-Dawley rat muscle at 11 uCi, iv measured 120 mins post compound dose; assay type: ADME, organism-based; details: in vivo, 2 h
Nucleic Acid [25] = test: Ratio of drug level in striatum to cerebellum in Sprague-Dawley rat at 11 uCi, iv measured 30 mins post compound dose; assay type: ADME, organism-based; details: in vivo, 0.5 h
Cortex [26] = test: Biodistribution in Sprague-Dawley rat cortex at 11 uCi, iv measured 60 mins post compound dose; assay type: ADME, organism-based; details: in vivo, 1 h
Nucleic Acid [27] = test: Ratio of drug level in rest of brain region to cerebellum in Sprague-Dawley rat at 11 uCi, iv measured 60 mins post compound dose; assay type: ADME, organism-based; details: in vivo, 1 h
Pancreas [28] = test: Biodistribution in Sprague-Dawley rat pancreas assessed as compound level per organ at 11 uCi, iv measured 60 mins post compound dose; assay type: ADME, organism-based; details: in vivo, 1 h
Brain [29] = test: Biodistribution in Sprague-Dawley rat brain at 11 uCi, iv measured 2 mins post compound dose; assay type: ADME, organism-based; details: in vivo
Kidney [30] = test: Biodistribution in Sprague-Dawley rat kidney at 11 uCi, iv measured 120 mins post compound dose; assay type: ADME, organism-based; details: in vivo, 2 h
Hippocampus = test: Biodistribution in Sprague-Dawley rat hippocampus at 11 uCi, iv measured 60 mins post compound dose; assay type: ADME, organism-based; details: in vivo, 1 h
Bone [31] = test: Biodistribution in Sprague-Dawley rat bone at 11 uCi, iv measured 30 mins post compound dose; assay type: ADME, organism-based, Bone element; details: in vivo, 0.5 h
Kidney [32] = test: Biodistribution in Sprague-Dawley rat kidney at 11 uCi, iv measured 30 mins post compound dose; assay type: ADME, organism-based; details: in vivo, 0.5 h
Spleen [33] = test: Biodistribution in Sprague-Dawley rat spleen assessed as compound level per organ at 11 uCi, iv measured 120 mins post compound dose; assay type: ADME, organism-based; details: in vivo, 2 h
Muscle tissue [34] = test: Biodistribution in Sprague-Dawley rat muscle at 11 uCi, iv measured 30 mins post compound dose; assay type: ADME, organism-based; details: in vivo, 0.5 h
Cerebellum [35] = test: Biodistribution in Sprague-Dawley rat cerebellum at 11 uCi, iv measured 60 mins post compound dose; assay type: ADME, organism-based; details: in vivo, 1 h
Cortex [36] = test: Biodistribution in Sprague-Dawley rat cortex at 11 uCi, iv measured 2 mins post compound dose; assay type: ADME, organism-based; details: in vivo
Cerebellum [37] = test: Biodistribution in Sprague-Dawley rat cerebellum at 11 uCi, iv measured 30 mins post compound dose; assay type: ADME, organism-based; details: in vivo, 0.5 h
Bone [38] = test: Biodistribution in Sprague-Dawley rat bone at 11 uCi, iv measured 2 mins post compound dose; assay type: ADME, organism-based, Bone element; details: in vivo
Pancreas [39] = test: Biodistribution in Sprague-Dawley rat pancreas assessed as compound level per organ at 11 uCi, iv measured 120 mins post compound dose; assay type: ADME, organism-based; details: in vivo, 2 h
Hypothalamus = test: Biodistribution in Sprague-Dawley rat hypothalamus at 11 uCi, iv measured 30 mins post compound dose; assay type: ADME, organism-based; details: in vivo, 0.5 h
Nucleic Acid [40] = test: Ratio of drug level in rest of brain region to cerebellum in Sprague-Dawley rat at 11 uCi, iv measured 120 mins post compound dose; assay type: ADME, organism-based; details: in vivo, 2 h
Blood [41] = test: Biodistribution in Sprague-Dawley rat blood at 11 uCi, iv measured 30 mins post compound dose; assay type: ADME, organism-based; details: in vivo, 0.5 h
Nucleic Acid [42] = test: Ratio of drug level in cortex to cerebellum in Sprague-Dawley rat at 11 uCi, iv measured 2 mins post compound dose; assay type: ADME, organism-based; details: in vivo
Nucleic Acid [43] = test: Ratio of drug level in hypothalamus to cerebellum in Sprague-Dawley rat at 11 uCi, iv measured 60 mins post compound dose; assay type: ADME, organism-based; details: in vivo, 1 h
Brain [44] = test: Biodistribution in Sprague-Dawley rat brain at 11 uCi, iv measured 30 mins post compound dose; assay type: ADME, organism-based; details: in vivo, 0.5 h
Heart [45] = test: Biodistribution in Sprague-Dawley rat heart assessed as compound level per organ at 11 uCi, iv measured 2 mins post compound dose; assay type: ADME, organism-based; details: in vivo
Blood [46] = test: Biodistribution in Sprague-Dawley rat blood at 11 uCi, iv measured 120 mins post compound dose; assay type: ADME, organism-based; details: in vivo, 2 h
Nucleic Acid [47] = test: Ratio of drug level in hippocampus to cerebellum in Sprague-Dawley rat at 11 uCi, iv measured 30 mins post compound dose; assay type: ADME, organism-based; details: in vivo, 0.5 h
Heart [48] = test: Biodistribution in Sprague-Dawley rat heart at 11 uCi, iv measured 2 mins post compound dose; assay type: ADME, organism-based; details: in vivo

Drug uptake (Kidney [1]): 4.61 %ID
Drug uptake (Muscle tissue [2]): 0.13 % ID/g
Drug uptake (Striatum [3]): 0.1 % ID/g
Drug uptake (Brain [4]): 1.14 % ID/g
Drug uptake (Kidney [5]): 2.6 % ID/g
Drug uptake (Lung [6]): 0.73 %ID
Drug uptake (Brain [7]): 0.06 % ID/g
Drug uptake (Pancreas [8]): 0.26 %ID
Drug uptake (Zone of skin [9]): 8.86 %ID
Drug uptake (Striatum [10]): 0.25 % ID/g
Drug uptake (Blood [11]): 2.71 %ID
Drug uptake (Liver): 9.42 %ID
Ratio (Nucleic Acid [12]): 1.69
Drug uptake (Zone of skin [13]): 4.07 %ID
Ratio (Nucleic Acid [14]): 1.24
Drug uptake (Heart [15]): 0.14 % ID/g
Ratio (Nucleic Acid [16]): 2.22
Drug uptake (Brain [17]): 1.13 %ID
Drug uptake (Spleen [18]): 0.22 % ID/g
Drug uptake (Lung [19]): 0.41 %ID
Ratio (Nucleic Acid [20]): 1.83
Drug uptake (Lung [21]): 6.52 %ID
Drug uptake (Cerebellum [22]): 1.5 % ID/g
Drug uptake (Brain [23]): 0.31 %ID
Drug uptake (Muscle tissue [24]): 0.06 % ID/g
Ratio (Nucleic Acid [25]): 3.13
Drug uptake (Cortex [26]): 0.2 % ID/g
Ratio (Nucleic Acid [27]): 1.1
Drug uptake (Pancreas [28]): 0.1 %ID
Drug uptake (Brain [29]): 1.21 % ID/g
Drug uptake (Kidney [30]): 0.57 % ID/g
Drug uptake (Hippocampus): 0.21 % ID/g
Drug uptake (Bone [31]): 0.4 % ID/g
Drug uptake (Kidney [32]): 1.45 % ID/g
Drug uptake (Spleen [33]): 0.07 %ID
Drug uptake (Muscle tissue [34]): 0.21 % ID/g
Drug uptake (Cerebellum [35]): 0.12 % ID/g
Drug uptake (Cortex [36]): 1.39 % ID/g
Drug uptake (Cerebellum [37]): 0.25 % ID/g
Drug uptake (Bone [38]): 0.6 % ID/g
Drug uptake (Pancreas [39]): 0.06 %ID
Drug uptake (Hypothalamus): 1 % ID/g
Ratio (Nucleic Acid [40]): 1.18
Drug uptake (Blood [41]): 0.36 % ID/g
Ratio (Nucleic Acid [42]): 0.92
Ratio (Nucleic Acid [43]): 2.77
Drug uptake (Brain [44]): 0.53 % ID/g
Drug uptake (Heart [45]): 1.17 %ID
Drug uptake (Blood [46]): 0.19 % ID/g
Ratio (Nucleic Acid [47]): 2.67
Drug uptake (Heart [48]): 1.46 % ID/g
SMILES: CN(C)Cc1cc([125I])ccc1Sc1ccccc1CO
